Consider 3 molecules from patent US9492434B2, “Combination compositions and methods of treatment” (University of Florida Research Foundation, Inc., priority 2011, dated 2016).

Format in all cases: cell-based, human
The subject of experiment [1] is E-Cadherin-containing complexes. The experiment in a line: GST pulldown (glutathione-agarose) of E-Cadherin complexes from 231/E-Cad-GST cells, immunoblot. As to conditions: for stabilization of E-Cadherin/γ-Catenin complexes relative to vehicle: 10 nM Largazole, 1 μM SAHA, or 100 nM TSA (FIG. 6C). As to the method: Cells were subjected to hypotonic lysis and membrane fractions were isolated by centrifugation for one hour at 100,000×g. The pellet was solubilized by sonication in buffer containing 2% Triton X100, 20 mM HEPES (pH 7.4), 1 mM EDTA, 1 mM EGTA, 0.1% β-mercaptoethanol, 5% glycerol, 10 nM microcystin, 200 μM Na3VO4, and 40 mM Na2H2P2O7. The membrane extract was centrifuged for one hour at 100,000×g, and the supernatant was used for E-Cadherin purifications. Complexes containing E-Cad-GST were isolated using glutathione-agarose (G4510; Sigma-Aldrich, St. Louis, Mo.), washed, and either eluted with 5 mM glutathione or eluted by boiling in SDS-PAGE sample buffer. In sequential purifications involving γ-Catenin-His6 and E-Cad-GST proteins expressed in the same cells, TALON (635503; Clontech Laboratories, Inc., Mountain View, Calif.) resin purifications were performed as described previously (Chytil et al 2004), and the 400 mM imidazole eluents were diluted ten-fold and purified using glutathione-agarose, followed by elution with 5 mM glutathione. […] Immunoprecipitations were performed as described previously (Law et al 2002) using 2 mg of total protein extract per sample and 4 μg of antibody per sample. Immunoprecipitates prepared using antibodies to E-Cadherin (610182; BD Biosciences) or GST (sc-459; Santa Cruz Biotechnology Inc.) were isolated with 35 μl per sample Protein G-Sepharose (10-1242; Invitrogen), washed, and eluted by boiling in SDS-PAGE sample buffer.
FIG. 6. […] A. Crude lysates (left panel) or GST pulldowns (right panel) from 231/E-Cad-GST cells treated for 72 hrs with 100 nM Dexamethasone, 10 nM Largazole, or Dex.+Larg. were analyzed by immunoblot. B. 231/E-Cad-GST cells were infected with an adenovirus encoding His6-tagged γ-Catenin and 231/neo cells were infected with an adenovirus encoding GFP and incubated 24 hours. The cells were then treated as indicated for 72 hrs with or without Dex.+Larg. γ-Catenin- and E-Cadherin containing complexes were isolated by sequential TALON and glutathione-agarose chromatography and analyzed by immunoblot. C. 231/E-Cad-GST cells were treated with 10 nM Largazole, 1 μM SAHA, or 100 nM TSA for 72 hrs and extracts were subjected to glutathione-agarose chromatography and the affinity purified material was analyzed by immunoblot.
A general note: Immunoblotting shows a protein as a band on a membrane.

Another experiment relates to BT549 cells. The conditions noted are these: 72 hrs; 100 nM Dexamethasone, 10 nM Largazole, or both (FIG. 3D).
For the next experiment, the system named is CDCP1. The experiment in a line: CDCP1 immunoblot analysis, MDA-MB-231 cells. As to conditions: 72 hr, Dexamethasone 100 nM, Largazole 10 nM (FIG. 5A, 5C).
Experiment [2] deals with 231/E-GFP cell line (MDA-MB-231 cells stably expressing E-Cad-GFP). The experiment can be described thus: Fluorescence microscopy of E-Cad-GFP localization in 231/E-Cad-GFP cells. As to conditions: 72 hrs, 100 nM Dexamethasone, 10 nM Largazole, or both (FIG. 3A). As to the method: Fluorescence and immunofluorescence microscopy were performed essentially as described previously (Corsino et al 2008) employing antibodies to E-Cadherin (610182; BD Bioscience) and γ-Catenin (138500; Invitrogen, Carlsbad, Calif.).
The 231/E-GFP cell line was treated with a series of small molecule signaling agonists and antagonists to identify compounds that modulate E-Cadherin localization within the cell. […] Changes in E-Cadherin localization partially overlapped with changes in γ-Catenin localization. In vitro invasion assays were performed to determine the respective effects of E-Cadherin expression and Dex.+Larg. treatment on the invasiveness of MDA-MB-231 cells.
FIG. 3. Dexamethasone and Largazole cooperate to suppress invasion and to restore E-Cadherin localization to the cell periphery. A. Fluorescence (E-Cad-GFP) or immunofluorescence microscopy (γ-Catenin (γ-Cat.)) of 231/E-Cad-GFP cells treated for 72 hrs with Vehicle (Control), 100 nM Dexamethasone, 10 nM Largazole, or 100 nM Dexamethasone+10 nM Largazole (Dex.+Larg.). […] BT549 cells were treated and analyzed by immunofluorescence microscopy as in FIG. 3A. D. BT549 cells were treated as described in FIG. 3A and analyzed for invasion as outlined in FIG. 3B.

For `CCCCCCCC(=O)SCC/C=C/[C@@H]1CC(=O)NCc2nc(cs2)C2=N[C@@](C)(CS2)C(=O)N[C@@H](C(C)C)C(=O)O1` [Largazole, largazole], the “stabilization of E-Cadherin/γ-Catenin complexes relative to vehicle” value in experiment [1] (231/E-Cad-GST cells, 72 hrs) is on record as “stabilized E-Cadherin/γ-Catenin complexes to similar extents relative to vehicle treatment”. For the same molecule, the “γ-Catenin binding to E-Cadherin” value in experiment [1] (231/E-Cad-GST cells, 72 hrs, 100 nM Dexamethasone or 10 nM Largazole (FIG. 6A)) is on record as “preferentially increased γ-Catenin binding to E-Cadherin relative to β-Catenin binding”. For the same molecule, the “levels of γ-Catenin” value in experiment [1] (231/E-Cad-GST crude lysates, 72 hrs, 10 nM Largazole (FIG. 6A)) is given as “without changing the levels of γ-Catenin”. In addition, in experiment [1] (Largazole treatment), the “E-Cadherin association with β-Catenin” value is reported as “little effect on E-Cadherin association with β-Catenin”. Further, the “invasion of BT549 cells in vitro” value with BT549 cells was “suppressed the invasion of BT549 cells in vitro”. Also, the “CDCP1 cleavage (cleaved form cCDCP1, p80)” value in the experiment on CDCP1 is recorded as “did not influence CDCP1 cleavage”. In addition, the “E-Cadherin localization to the cell-cell periphery” value in experiment [2] was “modestly increased E-Cadherin localization to the cell-cell periphery”.
As to `O=C(CCCCCCC(=O)Nc1ccccc1)NO` [SAHA, suberoylanilide hydroxamic acid, reference compound], the “stabilization of E-Cadherin/γ-Catenin complexes relative to vehicle” value in experiment [1] (231/E-Cad-GST cells, 72 hrs) is listed as “stabilized E-Cadherin/γ-Catenin complexes to similar extents relative to vehicle treatment”.
The same measure, in the same setting: the value for `CC(/C=C/C(=O)NO)=C\[C@@H](C)C(=O)c1ccc(N(C)C)cc1` [TSA, Trichostatin A, reference compound] was “stabilized E-Cadherin/γ-Catenin complexes to similar extents relative to vehicle treatment”.
